Measured values taken from PMC8305076, “Comprehensive Evaluation of Biological Effects of Pentathiepins on Various Human Cancer Cell Lines and Insights into Their Mode of Action” (International Journal of Molecular Sciences, 2021).
Like-named read-outs stand apart in the source and are kept apart here.

How the values were obtained:
MCF-7 = experiment: MTT cell viability assay; type: cell-based, human
Protocol: Distinct MTT cell viability and crystal violet cell proliferation assays were performed to assess the cytotoxicity of the compounds 1–6 on 14 human cancer cell lines. In the viability assay, cells with intact mitochondria and thus active dehydrogenases are competent to convert MTT to the corresponding insoluble formazan. The formazan can be photometrically detected after solubilization and allows for indirect conclusions about the viability of the cells as an IC50 value. In the crystal violet assay, cells are stained by the binding of the dye to the chromatin, thus allowing for a quantification of biomass that remains adherent after a treatment in comparison with a control after a specific time. Potency is defined as the growth inhibitory concentration 50% (GI50).
In addition to performing the cell viability assay under normoxia (19% atmospheric oxygen), incubations were also conducted under hypoxic conditions, i.e., atmospheric oxygen levels of 1% during the treatment for 48 h. Hypoxia is a favorable condition of the tumor microenvironment that is connected with poor outcome. Therefore, the low oxygen condition mimics better the tumor environment. The biological effect of the pentathiepins under this condition provides insight into their dependency for oxygen, which has been postulated a key component in the proposed mechanism of action (Figure 3). Consistent with the proposed mechanism of action for five of the compounds, potency decreased under hypoxic conditions; in fact for 6, the half-maximal inhibitory concentration exceeded the highest tested concentration of 10 µM in four cell lines (Figure 6, Table S3). […] In contrast to the other compounds, in some cell lines, the cytotoxic effects of 1 were more pronounced under oxygen-reduced incubation conditions (Figure 6), indicating a tangential role of oxygen availability for this pentathiepin. Especially for the breast cancer cell line MCF-7, the cytotoxicity increased substantially, indicated by a decrease of the IC50 from >10.0 µM to about 1.0 µM.
The effect of the pentathiepins on the viability of the cell lines was assessed via an MTT assay, performed as previously described. Healthy and viable cells convert the yellow soluble 3-(4,5-dimethylthiazol-2-yl)-2,5-diphenyltetrazolium bromide to the insoluble purple corresponding formazan, which can be spectrophotometrically measured. For this assay, 5000 cells (1 250 for LCLC-103H) in 0.1 mL of medium were seeded per well of a 96-well plate and incubated at standard conditions for 24 h prior to treatment. A serial dilution of the test compounds was prepared in medium, covering final concentrations from 10.0 to 0.04 µM, and 0.1 mL of the working solution was added to each well in triplicate. After 48 h, 20 µL of a 2.5 mg/mL MTT in PBS solution was pipetted into each well and further incubated for 4 h at standard conditions. Thereafter, medium was replaced with 50 µL DMSO, and the plates were put on a shaker for 5 min and subsequently read at λ = 570 nm, with a SpectraMax 384plus (Molecular Devices, Sunnyvale, CA, USA). The cell viabilities of the treatment conditions were calculated in relation to a solvent control sample. The absolute IC50 was calculated via nonlinear regression followed by interpolation of the dose–response graphs in Prism 7 (GraphPad, San Diego, CA, USA). The IC90 was derived from the IC50 by using the slope factor of the dose–response graph with the tool QuickCalcs from GraphPad (GraphPad Software, San Diego, CA, USA).

[1] = test system: HAP-1, HAP-1.KO.GPx1, and Siso; experiment: alkaline Comet assay (summary); type: cell-based, human; design: key: no impact (0); weak impact (+); strong impact (++); conditions: summary grade
Text: Next, the potential of the pentathiepins 1–6 to damage nuclear DNA was investigated in the cell lines HAP-1, HAP-1.KO.GPx1, and Siso, with different expression levels of GPx1 and CAT (see Figure 7), by Comet Assay (Figure 12) with representative images in the Supplementary Materials (Figure S48).
With this assay, the intensity of DNA damage can be assessed on the level of a single cell, in case of the alkaline version detecting both single and double strand breaks as well as alkali-labile sites. The method presented here is an adaptation of the protocol published by Olive and Banath and based on the distinct electrophoretic mobility of damaged and intact genomic DNA. The latter has a low mobility; does thus not migrate in the electric field; and remains in a nucleoid shape after lysis, referred to as the comet head. In contrast, when strand breaks are created, free charged ends emerge and increase the electrophoretic mobility, prompting DNA segments to drift away from the comet head, thereby forming the so-called comet tail. As descriptor of still intact genomic DNA, the percentage of DNA in the comet head was selected. Per condition, 50,000 cells of either Siso, HAP-1, or HAP-1.KO.GPx1 were diluted in 1 mL of PBS and subsequently treated with either a 1% DMF aqueous solution as negative control, 20 µM of H2O2 as positive control, or 25 µM of pentathiepin for 15 min on ice to impair intracellular DNA repair mechanisms. Afterwards, 400 µL of the cell suspension was blended with 1.2 mL of a 1% low melting point agarose solution (40 °C) and smoothly distributed on agarose-precoated glass slides. Polymerization was finished after 3 min at RT, and the slides were horizontally submerged in alkaline lysis buffer (1.2 M NaCl, 0.1% N-lauryl-sarcosinate, 0.1 M Na-EDTA, 0.26 M NaOH) before storing them at 4 °C overnight. The slides were then rinsed three times in rinse/electrophoresis buffer (0.002 M Na-EDTA, 0.03 M NaOH) before electrophoretic separation was performed for 25 min at 0.6 V/cm. A neutralization step by adding distilled water was followed by staining the slides with 250 µL of an aqueous 10 µg/mL PI solution for 20 min. For visualization and image capturing, a DMi8 fluorescent microscope and LASX software (Leica Microsystems, Wetzlar, Germany) were used, and the comets scored with the help of CometScore2.0 (rexhoover.com). Per condition and replicate, at least 100 comets were analyzed to calculate a mean level of damage.

[2] = Homo sapiens, MCF7, 48 h, hypoxic (1% O2), read-out: IC50 MTT-H mean
[3] = Homo sapiens, MCF7, 48 h, normoxic (19% O2), read-out: IC50 MTT-N mean

Row | SMILES | IC50 (MCF-7; 48 h, hypoxic (1% O2), read-out: IC50 MTT-H mean) [µM] | IC50 (MCF-7; [2]) [µM] | IC50 (MCF-7; [3]) [µM] | Comet formation [1]
1 | CCOc1c2c(c3ccc(C(=O)N4CCCCC4)cn13)SSSSS2 [Compound 2, (6-Ethoxy-[1,2,3,4,5]pentathiepino[6,7-a]indolizin-9-yl)(piperidinyl)methanone] |  | > 10 | 3.04 | +
2 | CCOc1c2c(c3ccc(C(=O)N4CCOCC4)cn13)SSSSS2 [Compound 3, (6-Ethoxy-[1,2,3,4,5]pentathiepino[6,7-a]indolizin-9-yl)(morpholino)methanone] |  | 3.56 | 1.68 | ++
3 | CCOc1c2c(c3ccc(C(=O)N(CC)CC)cn13)SSSSS2 [Compound 4, 6-Ethoxy-N,N’-diethyl-[1,2,3,4,5]pentathiepino[6,7-a]indolizine-9-carboxamide] |  | 3.56 | 3.21 | ++
4 | CCOc1c2c(c3ccc(C(=O)N4CCN(S(=O)(=O)c5ccc(C)cc5)CC4)cn13)SSSSS2 [Compound 6, (6-Ethoxy-[1,2,3,4,5]pentathiepino[6,7-a]indolizin-9-yl)(4-tosylpiperazinyl)methanone] |  | > 10 | 3.99 | +

Compounds with a lower IC50 (MCF-7; [2]), results first:

Row | IC50 (MCF-7; 48 h, hypoxic (1% O2), read-out: IC50 MTT-H mean) [µM] | IC50 (MCF-7; [2]) [µM] | IC50 (MCF-7; [3]) [µM] | SMILES | Comet formation [1]
5 |  | 3.01 | 1.64 | CCOc1c2c(c3ccc(C(=O)N4CCN(C(=O)c5ccc(F)cc5)CC4)cn13)SSSSS2 [Compound 5, (6-Ethoxy-[1,2,3,4,5]pentathiepino[6,7-a]indolizin-9-yl)(4-(4-fluorobenzoyl)piperazinyl)methanone] | ++
6 | 0.97 | ~1 | > 10 | CCOc1c2c(c3cnc4[nH]c(-c5ccc(OC)cc5)cc4n13)SSSSS2 [Compound 1, 11-Ethoxy-2-(4-methoxyphenyl)-3H-[1,2,3,4,5]pentathiepino[6′,7′:3,4]pyrrolo[1,2-a]pyrrolo[2,3-e]pyrazine] | +
